In article PMC11304236, “A Novel Drug Candidate for Sepsis Targeting Heparanase by Inhibiting Cytokine Storm” (Advanced Science, 2024):

Experiments:
TNF-α, IL-6, IL-1β = experiment: Cytokine ELISA in serum and organs of LPS-induced septic mice; format: in vivo, mouse; conditions: 40 mg kg−1, 30 min after LPS 20 mg kg−1 i.p.; 3 h after LPS; vs LPS group
Procedure: For LPS‐induced sepsis model experiments, twenty male C57BL/6J mice were randomly divided into four groups (n = 5 in each group). Mice in group 1 were injected with 0.9% NaCl, while mice in groups 2–4 were injected intraperitoneally with LPS (20 mg kg^−1). After 30 min, mice in group 3 were injected with 40 mg kg^−1 CV122 and mice in group 4 were injected with 40 mg kg^−1 Suramin. After 3 h, blood was taken and the lungs, liver, spleen, kidney heart, and brain were taken. For CLP experiments, the mice were euthanized 24 h after the establishment of the sepsis model. Blood samples were collected from the eyeballs of mice, the lungs were taken. These organs were ground at 0.1 g mL^−1 in PBS, centrifuged and the supernatant collected. Serum and organ tissue supernatants were used to detect cytokine levels using the mouse TNF‐α, IL‐6, IL‐1β ELISA MAXTM Deluxe Set.

HUVECs = experiment: Cell survival assay (CCK-8) in HUVECs; format: cell-based, human
LPS-induced septic mice = experiment: LPS-induced sepsis mouse model, survival; format: in vivo; conditions: 40 mg kg−1 s.c. 30 min after LPS 40 mg kg−1 i.p.; 80 h or longer observation; LPS group 0%
Procedure: For LPS‐induced sepsis model experiments, 25 male C57BL/6J mice, 6–8 weeks old, weighing 20–25 g, were randomly divided into five groups (n = 5 in each group), and survival was examined. The abdominal cavity was injected with 40 mg kg^−1 LPS to induce sepsis. 30 min later, mice in group 1 were injected subcutaneously with 0.9% NaCl, mice in groups 2–4 were injected subcutaneously with CV122 (20 mg kg^−1), CV122 (30 mg kg^−1), and CV122 (40 mg kg^−1), respectively, and mice in group 5 were injected subcutaneously with Suramin (40 mg kg^−1). The status of the mice was observed and recorded every day.

For `Cc1ccc(C(=O)Nc2ccc(S(=O)(=O)O)c3cc(S(=O)(=O)O)cc(S(=O)(=O)O)c23)cc1NC(=O)c1cccc(NC(=O)Nc2cccc(C(=O)Nc3cc(C(=O)Nc4ccc(S(=O)(=O)O)c5cc(S(=O)(=O)O)cc(S(=O)(=O)O)c45)ccc3C)c2)c1` [Suramin, reference compound], the “TNF-α, IL-6 and IL-1β levels in serum and lungs” value (TNF-α, IL-6, IL-1β) was “suppress the cytokine release but to a lesser extent”, the “effect on survival of HUVECs” value (HUVECs; 100 µM, *p < 0.05) was “significant inhibitory effect” and the “effect on survival of HUVECs” value (HUVECs; 200 µM, **p < 0.01) was “significant inhibitory effect”. It also gave a survival rate (LPS-induced septic mice) of 60%.
